Test system: NOMO1
Test: cell viability relative to DMSO control; higher = less cytotoxic
Settings: 48 h
Outline: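 Viability values are per-plate percentages of DMSO wells, with background from cell-free wells. Library compounds in DMSO were pin-dosed, in an 11-point threefold series from 47 μM to 0.79 nM, onto NOMO1 or SEM (500 cells/well) or P12-Ichikawa (1000 cells/well) leukemia cells in 1536-well plates (5 μl). Those cells had been adapted for at least four passages in each medium, and CellTiter-Glo One luminescence was read after 48 h at 37°C.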

[1] = HPLM + 10% dialyzed FBS, 0.000781 µM
[2] = HPLM + 10% dialyzed FBS, 0.00234 µM
[3] = HPLM + 10% dialyzed FBS, 0.00702 µM
[4] = HPLM + 10% dialyzed FBS, 0.0211 µM
[5] = HPLM + 10% dialyzed FBS, 0.0632 µM
[6] = HPLM + 10% dialyzed FBS, 0.19 µM
[7] = HPLM + 10% dialyzed FBS, 0.569 µM
[8] = HPLM + 10% dialyzed FBS, 1.71 µM
[9] = HPLM + 10% dialyzed FBS, 5.12 µM
[10] = HPLM + 10% dialyzed FBS, 15.4 µM
[11] = HPLM + 10% dialyzed FBS, 46.1 µM
[12] = RPMI 5 mM glucose + 10% FBS, 0.000781 µM
[13] = RPMI 5 mM glucose + 10% FBS, 0.00234 µM
[14] = RPMI 5 mM glucose + 10% FBS, 0.00702 µM
[15] = RPMI 5 mM glucose + 10% FBS, 0.0211 µM
[16] = RPMI 5 mM glucose + 10% FBS, 0.0632 µM
[17] = RPMI 5 mM glucose + 10% FBS, 0.19 µM
[18] = RPMI 5 mM glucose + 10% FBS, 0.569 µM
[19] = RPMI 5 mM glucose + 10% FBS, 1.71 µM
[20] = RPMI 5 mM glucose + 10% FBS, 5.12 µM
[21] = RPMI 5 mM glucose + 10% FBS, 15.4 µM
[22] = RPMI 5 mM glucose + 10% FBS, 46.1 µM
[23] = RPMI 5 mM glucose + 10% dialyzed FBS, 0.000781 µM
[24] = RPMI 5 mM glucose + 10% dialyzed FBS, 0.00234 µM
[25] = RPMI 5 mM glucose + 10% dialyzed FBS, 0.00702 µM
[26] = RPMI 5 mM glucose + 10% dialyzed FBS, 0.0211 µM
[27] = RPMI 5 mM glucose + 10% dialyzed FBS, 0.0632 µM
[28] = RPMI 5 mM glucose + 10% dialyzed FBS, 0.19 µM
[29] = RPMI 5 mM glucose + 10% dialyzed FBS, 0.569 µM
[30] = RPMI 5 mM glucose + 10% dialyzed FBS, 1.71 µM
[31] = RPMI 5 mM glucose + 10% dialyzed FBS, 5.12 µM
[32] = RPMI 5 mM glucose + 10% dialyzed FBS, 15.4 µM
[33] = RPMI 5 mM glucose + 10% dialyzed FBS, 46.1 µM

SMILES | cell viability [1] [%] | cell viability [2] [%] | cell viability [3] [%] | cell viability [4] [%] | cell viability [5] [%] | cell viability [6] [%] | cell viability [7] [%] | cell viability [8] [%] | cell viability [9] [%] | cell viability [10] [%] | cell viability [11] [%] | cell viability [12] [%] | cell viability [13] [%] | cell viability [14] [%] | cell viability [15] [%] | cell viability [16] [%] | cell viability [17] [%] | cell viability [18] [%] | cell viability [19] [%] | cell viability [20] [%] | cell viability [21] [%] | cell viability [22] [%] | cell viability [23] [%] | cell viability [24] [%] | cell viability [25] [%] | cell viability [26] [%] | cell viability [27] [%] | cell viability [28] [%] | cell viability [29] [%] | cell viability [30] [%] | cell viability [31] [%] | cell viability [32] [%] | cell viability [33] [%]
CN1CCN(CCCN2c3ccccc3Sc3ccc(C(F)(F)F)cc32)CC1 | 105 | 106 | 112 | 117 | 108 | 115 | 125 | 95.4 | 32.9 | 20.6 | 24.2 | 100 | 104 | 108 | 101 | 96.2 | 98.5 | 106 | 61.5 | 18.7 | 16.7 | 11.3 | 99.6 | 107 | 105 | 108 | 119 | 113 | 103 | 104 | 27.2 | 25.6 | 21
CN1CCN(C(=O)O[C@H]2c3nccnc3C(=O)N2c2ccc(Cl)cn2)CC1 | 115 | 102 | 119 | 114 | 114 | 112 | 114 | 101 | 91.1 | 98.4 | 88.1 | 94.8 | 99.2 | 92.4 | 106 | 103 | 99.4 | 99.4 | 97.9 | 99.3 | 93.8 | 84.6 | 97.6 | 107 | 103 | 94.2 | 99.1 | 97 | 105 | 97.2 | 97 | 88.5 | 78.5
CN1CCN(CCOc2cc(OC3CCOCC3)c3c(Nc4c(Cl)ccc5c4OCO5)ncnc3c2)CC1 | 134 | 119 | 125 | 131 | 125 | 123 | 134 | 123 | 89.4 | 60.1 | 71.4 |  |  |  |  |  |  |  |  |  |  |  |  |  |  |  |  |  |  |  |  |  | 
C=CCc1ccc(O)c(-c2ccc(O)c(CC=C)c2)c1 | 111 | 117 | 112 | 120 | 112 | 94.8 | 90.6 | 93.4 | 84.3 | 86.8 | 88.7 | 107 | 105 | 119 | 118 | 122 | 112 | 95.3 | 61 | 51 | 60.4 | 62.6 | 114 | 106 | 107 | 112 | 119 | 111 | 91.4 | 54.7 | 47.9 | 58.9 | 53.8
COc1cccc2c1CCCC2CCCN1CCN(C2CCCCC2)CC1 (stereo unspecified) | 97.9 | 105 | 99.9 | 106 | 114 | 138 | 111 | 105 | 96.7 | 99.7 | 57 | 102 | 107 | 109 | 100 | 99.5 | 103 | 103 | 94 | 96.2 | 89.7 | 66.2 | 89.2 | 100 | 98 | 92.7 | 93.1 | 104 | 92.9 | 94.8 | 109 | 87.9 | 58
CNC(=O)CN1CCC(Oc2cc3c(Nc4cccc(Cl)c4F)ncnc3cc2OC)CC1 |  |  |  |  |  |  |  |  |  |  |  |  |  |  |  |  |  |  |  |  |  |  | 116 | 122 | 138 | 133 | 141 | 144 | 52.7 | 41.8 | 32.1 | 33.7 | 31.7
N#C[C@H](O[C@@H]1O[C@H](CO[C@@H]2O[C@H](CO)[C@@H](O)[C@H](O)[C@H]2O)[C@@H](O)[C@H](O)[C@H]1O)c1ccccc1 | 108 | 96.9 | 120 | 115 | 99.1 | 102 | 100 | 96.6 | 103 | 95.9 | 19.5 | 90.5 | 117 | 104 | 89.4 | 97.3 | 93.5 | 96.3 | 84.5 | 93.4 | 85.1 | 16 | 106 | 110 | 103 | 115 | 109 | 96.2 | 101 | 97.6 | 98.1 | 88.8 | 9.62
NC(=O)c1ncn([C@@H]2O[C@H](CO)[C@@H](O)[C@H]2O)c1O |  |  |  |  |  |  |  |  |  |  |  | 122 | 125 | 114 | 118 | 114 | 136 | 129 | 127 | 112 | 112 | 117 | 122 | 127 | 115 | 113 | 106 | 120 | 118 | 103 | 115 | 118 | 112
N#C/C(C(=O)c1ccc(Cl)cc1Cl)=C1/NC(=O)c2ccc(Cl)cc2N1 | 117 | 108 | 122 | 128 | 130 | 117 | 114 | 105 | 109 | 102 | 106 | 105 | 119 | 111 | 109 | 105 | 111 | 103 | 102 | 94.5 | 95.1 | 98.2 | 113 | 114 | 114 | 104 | 118 | 114 | 107 | 103 | 110 | 103 | 105
CCOC1=CC=CC=C1N\2C(=O)C3=C(C=CC=C3)\N=C2C(C)N4CCN(CC4)C(=O)COC5=CC=C(Cl)C=C5 (stereo unspecified) |  |  |  |  |  |  |  |  |  |  |  | 116 | 115 | 132 | 112 | 131 | 127 | 119 | 37.8 | 10.4 | 5.57 | 3.82 |  |  |  |  |  |  |  |  |  |  | 
CCOC(=O)Nc1ccc(NCc2ccc(F)cc2)nc1N | 123 | 137 | 114 | 127 | 117 | 117 | 108 | 101 | 104 | 109 | 120 | 118 | 105 | 103 | 111 | 110 | 127 | 101 | 105 | 103 | 114 | 106 | 108 | 113 | 110 | 123 | 122 | 109 | 119 | 119 | 112 | 106 | 102
N[S+](=O)([O-])OC[C@@H]1C[C@@H](n2ccc3c(N[C@H]4CCc5ccccc54)ncnc32)C[C@@H]1O | 103 | 118 | 114 | 111 | 110 | 107 | 70.8 | 26.6 | 16.6 | 14.3 | 18.7 | 96.2 | 110 | 92.4 | 113 | 118 | 92.6 | 57.7 | 12.4 | 10.8 | 8.04 | 8.01 | 111 | 97.4 | 104 | 104 | 121 | 103 | 59.8 | 26.7 | 18.5 | 13 | 10.8
O=C(Nc1cccnn1)N1CCC(=Cc2cccc(Oc3ccc(C(F)(F)F)cn3)c2)CC1 | 72.8 | 98.3 | 109 | 47.4 | 122 | 117 | 113 | 124 | 110 | 102 | 110 | 83.4 | 98.3 | 96.3 | 21.7 | 90.8 | 112 | 91.6 | 97.7 | 98.1 | 96.2 | 94.2 | 91 | 85.3 | 94.4 | 75.4 | 103 | 97.4 | 109 | 106 | 96.5 | 103 | 100
Cc1ncc([N+](=O)[O-])n1CC(C)O (stereo unspecified) | 96.1 | 100 | 117 | 114 | 119 | 110 | 111 | 116 | 117 | 120 | 108 | 100 | 123 | 106 | 106 | 113 | 118 | 132 | 117 | 117 | 105 | 113 | 101 | 107 | 95.3 | 96.4 | 113 | 116 | 110 | 110 | 115 | 115 | 101
NC/1=N/C(=O)N(/C=N1)[C@@H]2O[C@H](CO)[C@@H](O)[C@H]2O | 108 | 108 | 111 | 101 | 106 | 115 | 108 | 100 | 94.8 | 65.8 | 21.2 | 100 | 109 | 91.5 | 93.6 | 99.9 | 106 | 96.9 | 90.6 | 81.3 | 52.7 | 20.7 | 110 | 112 | 106 | 110 | 116 | 111 | 109 | 91.6 | 72.6 | 32.6 | 14.6
C[C@@]1(C(=O)Nc2ccc(F)nc2)CCCN1c1nc(Nc2cc(C3CC3)[nH]n2)c2cccn2n1 | 83.2 | 108 | 108 | 89.9 | 90.7 | 71.2 | 77.4 | 67.5 | 44.9 | 46.3 | 62 | 104 | 108 | 120 | 110 | 108 | 93.3 | 112 | 86 | 62.9 | 56.8 | 68.5 | 96.6 | 108 | 105 | 102 | 97.9 | 85.4 | 80 | 86.2 | 51.6 | 55.2 | 60

Source: the supplement of paper PMC11451515
